One compound from PMC3354555, “Partial Purification and Characterization of Rhodanese from Rainbow Trout (Oncorhynchus mykiss) Liver” (The Scientific World Journal, 2012) can be followed below.

This experiment concerns T1, rainbow trout liver rhodanese (thiosulphate: cyanide sulphurtransferase, EC 2.8.1.1).
T1 construct: gene tst
As to conditions: 50 mM KCN, 25 mM citrate-phosphate-borate pH 10.5, 25°C; apparent; partially purified enzyme.

By Km is commonly meant the substrate concentration at which the rate is half of its maximum. As to `O=S(O)(O)=S` [Na2S2O3], the Km came to 19.8 mM.
